Entries after “also recorded” stand apart in the source; their conditions may differ.
How the values were obtained:
[1] = tested on: blood-brain barrier; experiment: FUS and microbubble BBB opening: fluorescent dextran delivery to the sonicated hippocampus, quantified as NOD;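 note: male wild-type C57BL/6 mice, left hippocampus sonicated with untargeted right hippocampus as control, read by fluorescence microscopy of frozen horizontal brain sections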
[2] = tested on: blood-brain barrier; settings: mouse
[3] = PL 3.5 cycles, PRF 6.25 kHz, BRF 0.1 Hz, BL 1000 pulses, pressure 0.51
[4] = PL 3.5 cycles, PRF 6.25 kHz, BRF 1 Hz, BL 1000 pulses, pressure 0.51
[5] = PL 3.5 cycles, PRF 6.25 kHz, BRF 2 Hz, BL 1000 pulses, pressure 0.51
[6] = PL 3.5 cycles, PRF 6.25 kHz, BRF 5 Hz, BL 1000 pulses, pressure 0.51
[7] = PL 3.5 cycles, PRF 6.25 kHz, pulses emitted continuously without bursts, pressure 0.51
[8] = PL 3.5 cycles, PRF 25 kHz, BRF 0.1 Hz, BL 1000 pulses, pressure 0.51
[9] = PL 3.5 cycles, PRF 25 kHz, BRF 1 Hz, BL 1000 pulses, pressure 0.51
[10] = PL 3.5 cycles, PRF 25 kHz, BRF 2 Hz, BL 1000 pulses, pressure 0.51
[11] = PL 3.5 cycles, PRF 25 kHz, BRF 5 Hz, BL 1000 pulses, pressure 0.51
[12] = PL 3.5 cycles, PRF 25 kHz, BRF 10 Hz, BL 1000 pulses, pressure 0.51
[13] = PL 3.5 cycles, PRF 25 kHz, pulses emitted continuously without bursts, pressure 0.51
[14] = PL 3.5 cycles, PRF 100 kHz, BRF 0.1 Hz, BL 1000 pulses, pressure 0.51
[15] = PL 3.5 cycles, PRF 100 kHz, BRF 1 Hz, BL 1000 pulses, pressure 0.51
[16] = PL 3.5 cycles, PRF 100 kHz, BRF 2 Hz, BL 1000 pulses, pressure 0.51
[17] = PL 3.5 cycles, PRF 100 kHz, BRF 5 Hz, BL 1 pulse, pressure 0.51
[18] = PL 3.5 cycles, PRF 100 kHz, BRF 5 Hz, BL 5 pulses, pressure 0.51
[19] = PL 3.5 cycles, PRF 100 kHz, BRF 5 Hz, BL 10 pulses, pressure 0.51
[20] = PL 3.5 cycles, PRF 100 kHz, BRF 5 Hz, BL 50 pulses, pressure 0.51
[21] = PL 3.5 cycles, PRF 100 kHz, BRF 5 Hz, BL 100 pulses, pressure 0.51
[22] = PL 3.5 cycles, PRF 100 kHz, BRF 5 Hz, BL 500 pulses, pressure 0.51
[23] = PL 3.5 cycles, PRF 100 kHz, BRF 5 Hz, BL 1000 pulses, pressure 0.13
[24] = PL 3.5 cycles, PRF 100 kHz, BRF 5 Hz, BL 1000 pulses, pressure 0.25
[25] = PL 3.5 cycles, PRF 100 kHz, BRF 5 Hz, BL 1000 pulses, pressure 0.37
[26] = PL 3.5 cycles, PRF 100 kHz, BRF 5 Hz, BL 1000 pulses, pressure 0.51
[27] = PL 3.5 cycles, PRF 100 kHz, BRF 10 Hz, BL 1000 pulses, pressure 0.51
[28] = PL 3.5 cycles, PRF 100 kHz, pulses emitted continuously without bursts, pressure 0.51
[29] = microbubble 0.01 μL/g, PRF 10 Hz, PL 20 ms, 0.46 MPa, 11-minute sonication
[30] = microbubble 0.05 μL/g injected over 180 seconds, PRF 5 Hz, PL 0.2 ms, 0.46 MPa
[31] = microbubble 0.05 μL/g, PRF 0.1 Hz, PL 20 ms, 0.46 MPa, 11-minute sonication
[32] = microbubble 0.05 μL/g, PRF 1 Hz, PL 20 ms, 0.46 MPa, 11-minute sonication
[33] = microbubble 0.05 μL/g, PRF 5 Hz, PL 0.2 ms, 0.46 MPa, 11-minute sonication
[34] = microbubble 0.05 μL/g, PRF 5 Hz, PL 20 ms, 0.46 MPa, 11-minute sonication
[35] = microbubble 0.05 μL/g, PRF 10 Hz, PL 0.03 ms, 0.46 MPa, 11-minute sonication
[36] = microbubble 0.05 μL/g, PRF 10 Hz, PL 0.1 ms, 0.46 MPa, 11-minute sonication
[37] = microbubble 0.05 μL/g, PRF 10 Hz, PL 0.2 ms, 0.46 MPa, 11-minute sonication
[38] = microbubble 0.05 μL/g, PRF 10 Hz, PL 1 ms, 0.46 MPa, 11-minute sonication
[39] = microbubble 0.05 μL/g, PRF 10 Hz, PL 2 ms, 0.46 MPa, 11-minute sonication
[40] = microbubble 0.05 μL/g, PRF 10 Hz, PL 10 ms, 0.46 MPa, 11-minute sonication
[41] = microbubble 0.05 μL/g, PRF 10 Hz, PL 20 ms, 0.46 MPa, 11-minute sonication
[42] = microbubble 0.05 μL/g, PRF 10 Hz, PL 20 ms, 0.46 MPa, microbubble and dextran 1 minute before a 30-second sonication
[43] = microbubble 0.05 μL/g, PRF 10 Hz, PL 30 ms, 0.46 MPa, 11-minute sonication
[44] = microbubble 0.05 μL/g, PRF 25 Hz, PL 20 ms, 0.46 MPa, 11-minute sonication
[45] = microbubble 0.25 μL/g, PRF 10 Hz, PL 20 ms, 0.46 MPa, 11-minute sonication
[46] = sham mouse, no ultrasound applied, microbubble 0.05 μL/g

Molecule: dextran
- increase in NOD (significance) ([1]; 100-kHz PRF, 5-Hz BRF, 0.51 MPa, 1000 pulse BL): Significant increases
- Incidence of NOD increase [1, 3]: 2/3
- NOD (mean ± std. dev.) [1, 3]: 0.68 ± 0.47 × 1e9
- Incidence of NOD increase [1, 4]: 2/3
- NOD (mean ± std. dev.) [1, 4]: 0.78 ± 0.85 × 1e9
- Incidence of NOD increase [1, 5]: 1/3
- NOD (mean ± std. dev.) [1, 5]: −0.16 ± 0.67 × 1e9
- Incidence of NOD increase [1, 6]: 2/3
- NOD (mean ± std. dev.) [1, 6]: 0.56 ± 0.95 × 1e9
- Incidence of NOD increase [1, 7]: 1/3
- NOD (mean ± std. dev.) [1, 7]: −0.11 ± 0.35 × 1e9
- Incidence of NOD increase [1, 8]: 2/3
- NOD (mean ± std. dev.) [1, 8]: 0.35 ± 0.10 × 1e9
- Incidence of NOD increase [1, 9]: 3/3
- NOD (mean ± std. dev.) [1, 9]: 1.92 ± 0.10 × 1e9
- Incidence of NOD increase [1, 10]: 3/3
- NOD (mean ± std. dev.) [1, 10]: 3.34 ± 1.35 × 1e9
- Incidence of NOD increase [1, 11]: 3/3
- NOD (mean ± std. dev.) [1, 11]: 1.48 ± 0.77 × 1e9
- Incidence of NOD increase [1, 12]: 2/3
- NOD (mean ± std. dev.) [1, 12]: 1.31 ± 1.35 × 1e9
- Incidence of NOD increase [1, 13]: 1/3
- NOD (mean ± std. dev.) [1, 13]: 0.30 ± 0.20 × 1e9
- Incidence of NOD increase [1, 14]: 2/3
- NOD (mean ± std. dev.) [1, 14]: 0.99 ± 0.85 × 1e9
- Incidence of NOD increase [1, 15]: 3/3
- NOD (mean ± std. dev.) [1, 15]: 1.45 ± 0.73 × 1e9
- Incidence of NOD increase [1, 16]: 3/3
- NOD (mean ± std. dev.) [1, 16]: 3.08 ± 2.76 × 1e9
- Incidence of NOD increase [1, 17]: 0/3
- NOD (mean ± std. dev.) [1, 17]: 0.01 ± 0.11 × 1e9
- Incidence of NOD increase [1, 18]: 1/3
- NOD (mean ± std. dev.) [1, 18]: 0.13 ± 0.17 × 1e9
- Incidence of NOD increase [1, 19]: 3/3
- NOD (mean ± std. dev.) [1, 19]: 2.14 ± 1.33 × 1e9
- Incidence of NOD increase [1, 20]: 3/3
- NOD (mean ± std. dev.) [1, 20]: 2.20 ± 0.54 × 1e9
- Incidence of NOD increase [1, 21]: 3/3
- NOD (mean ± std. dev.) [1, 21]: 3.60 ± 0.95 × 1e9
- Incidence of NOD increase [1, 22]: 3/3
- NOD (mean ± std. dev.) [1, 22]: 3.30 ± 0.58 × 1e9
- Incidence of NOD increase [1, 23]: 1/3
- NOD (mean ± std. dev.) [1, 23]: 0.10 ± 0.21 × 1e9
- Incidence of NOD increase [1, 24]: 1/3
- NOD (mean ± std. dev.) [1, 24]: 0.10 ± 0.16 × 1e9
- Incidence of NOD increase [1, 25]: 2/3
- NOD (mean ± std. dev.) [1, 25]: 0.60 ± 0.48 × 1e9
- Incidence of NOD increase [1, 26]: 3/3
- NOD (mean ± std. dev.) [1, 26]: 6.14 ± 1.45 × 1e9
- Incidence of NOD increase [1, 27]: 3/3
- NOD (mean ± std. dev.) [1, 27]: 2.01 ± 1.44 × 1e9
- Incidence of NOD increase [1, 28]: 1/3
- NOD (mean ± std. dev.) [1, 28]: 0.21 ± 0.32 × 1e9
- spatial distribution of delivered dextran fluorescence in the target ROI ([1]; bursts of 3.5-cycle pulses, 100-kHz PRF, 5-Hz BRF, 0.51 MPa, 1000 pulse BL, listed as 3-kDa dextran): distributed most homogeneously and across a larger area than the other two molecular weights; also recorded: homogeneous and diffuse spatial distribution
- NOD (mean ± std. dev.) [1, 29]: 2.89 ± 1.99 × 1e9
- Number of mice with delivered dextran [1, 29]: 5/5
- NOD (mean ± std. dev.) [1, 30]: 1.58 ± 1.37 × 1e9
- Number of mice with delivered dextran [1, 30]: 5/5
- NOD (mean ± std. dev.) [1, 31]: −0.17 ± 0.17 × 1e9
- Number of mice with delivered dextran [1, 31]: 0/5
- NOD (mean ± std. dev.) [1, 32]: 3.77 ± 4.52 × 1e9
- Number of mice with delivered dextran [1, 32]: 3/5
- NOD (mean ± std. dev.) [1, 33]: 2.02 ± 1.38 × 1e9
- Number of mice with delivered dextran [1, 33]: 5/5
- NOD (mean ± std. dev.) [1, 34]: 4.21 ± 2.05 × 1e9
- Number of mice with delivered dextran [1, 34]: 5/5
- NOD (mean ± std. dev.) [1, 35]: 0.78 ± 1.41 × 1e9
- Number of mice with delivered dextran [1, 35]: 2/5
- NOD (mean ± std. dev.) [1, 36]: 1.20 ± 1.05 × 1e9
- Number of mice with delivered dextran [1, 36]: 5/6
- NOD (mean ± std. dev.) [1, 37]: 0.98 ± 0.67 × 1e9
- Number of mice with delivered dextran [1, 37]: 5/5
- NOD (mean ± std. dev.) [1, 38]: 4.07 ± 3.71 × 1e9
- Number of mice with delivered dextran [1, 38]: 5/5
- NOD (mean ± std. dev.) [1, 39]: 1.84 ± 1.44 × 1e9
- Number of mice with delivered dextran [1, 39]: 4/5
- NOD (mean ± std. dev.) [1, 40]: 4.76 ± 2.03 × 1e9
- Number of mice with delivered dextran [1, 40]: 5/5
- NOD (mean ± std. dev.) [1, 41]: 4.45 ± 2.08 × 1e9
- Number of mice with delivered dextran [1, 41]: 5/5
- NOD (mean ± std. dev.) [1, 42]: 4.91 ± 0.94 × 1e9
- Number of mice with delivered dextran [1, 42]: 5/5
- NOD (mean ± std. dev.) [1, 43]: 5.77 ± 1.73 × 1e9
- Number of mice with delivered dextran [1, 43]: 5/5
- NOD (mean ± std. dev.) [1, 44]: 4.58 ± 1.40 × 1e9
- Number of mice with delivered dextran [1, 44]: 5/5
- NOD (mean ± std. dev.) [1, 45]: 5.34 ± 2.12 × 1e9
- Number of mice with delivered dextran [1, 45]: 5/5
- NOD (mean ± std. dev.) [1, 46]: 0.01 ± 0.23 × 1e9
- Number of mice with delivered dextran [1, 46]: 0/5

B1: GDNF: glia-derived neurotrophic factor (protein, UniProt P39905 78-211, looked up)
Glial cell line-derived …: SPDKQMAVLPRRERNRQAAAANPENSRGKGRRGQRGKNRGCVLTAIHLNVTDLGLGYETKEELIFRYCSGSCDAAETTYDKILKNLSRNRRLVSDKVGQACCRPIAFDDDLSFLDDNLVYHILRKHSAKRCGCI
- permeation through the FUS-opened BBB into the parenchyma [2]: does not
- fluorescence post-mortem in brain, kidneys, liver, bladder or testes ([2]; in vivo): no fluorescence was found
- time within which the protein may be broken down in circulation ([2]; in vivo): ≤ 45 s

B2: Neurturin: neurotrophic factor neurturin (NTN) (protein, UniProt Q99748 96-197, looked up)
Neurturin: ARLGARPCGLRELEVRVSELGLGYASDETVLFRYCAGACEAAARVYDLGLRRLRQRRRLRRERVRAQPCCRPTAYEDEVSFLDAHSRYHTVHELSARECACV
- permeation through the FUS-opened BBB into the parenchyma [2]: permeating through the opened barrier and into the parenchyma

— US9358023B2, “Systems and methods for opening of a tissue barrier” (priority 2009, dated 2016)
